In patent publication US20220016154A1, “TREATMENT OF NEURONAL MOSAICISM IN DEMENTIA” (Crownview Medical Group, Inc., priority 2020, published 2022):

Columns and labels:
[1] = test system: patient with advanced dementia; assay: Case report: dementia patient administered a regimen of ZDV (Retrovir), clinical observation and SMMSE; assay type: in vivo, human; conditions: one patient, SMMSE 2 to 4 before treatment; after 8 weeks of treatment
HIV-associated dementia = conditions: HIV patients, antiretroviral therapy; cited from earlier work

## Cc1cn([C@H]2C[C@H](N=[N+]=[N-])[C@@H](CO)O2)c(=O)[nH]c1=O [Zidovudine]
[1]
  SMMSE scores: not consistently improved
  ability to remember and communicate about where they lived: specific improvements in their ability to remember and communicate about where they lived
  alertness and awareness of surroundings: more alert and aware of their surroundings
HIV-associated dementia
  progression of HIV-associated dementia: slowed
